# Experimental data published in patent US7807673B2, “2-pyrimidinyl pyrazolopyridine ErbB kinase inhibitors” (GlaxoSmithKline LLC, priority 2005, dated 2010).
# Legend:
# [1] = biological target: T1, ErbB2 or EGFR; test: ErbB enzyme substrate phosphorylation assay (HTRF), Method A; type: biochemical; details: Table 1, enzyme Method A: substrate mix added first, reaction started with enzyme mix; class over ErbB2 or EGFR
# T1 construct: enzymes purified from a baculovirus expression system
# Method: Compounds of the present invention were tested for EGFR, ErbB-2, and ErbB-4 protein tyrosine kinase inhibitory activity in substrate phosphorylation assays using enzymes purified from a baculovirus expression system. Reagent production was conducted essentially as described in Brignola, P. S., et al, (2002) J. Biol. Chem. 277(2): 1576-1585.
# The method measures the ability of the isolated enzyme to catalyse the transfer of the gamma-phosphate from ATP onto the tyrosine residue of a biotinylated synthetic peptide referenced “Peptide C” in Brignola, P. S., et al, (2002) J. Biol. Chem. 277(2):1576-1585. The extent of tyrosine phosphorylation was measured using an anti-phosphotyrosine antibody, and quantified by homogenous time-resolved fluorescence (HTRF).
# Reactions were performed in black 384-well polystyrene flat-bottom plates in a final volume of 20 μl. Assays were performed by adding 10 μl of each of the following solutions, substrate Mix and enzyme mix: The Substrate mix contained 100 mM 3-[N-morpholino]propanesulfonic acid (MOPS) (pH 7.5), 2 mM MnCl2, 20 μM ATP, 0.01% Tween-20, 0.1 mg/mL (BSA), 0.8 uM peptide substrate, and 1 mM dithiothreitol. The enzyme mix contained 100 mM MOPS (pH7.5); 0.01% Tween-20; 0.1 mg/mL BSA, and either 0.8 nM EGFR, 10 nM ErbB2, or 1 nM ErbB4
# During the course of these studies, two separate methods have been used to measure the potency of compounds. In Method A, the substrate mix was added to the compound plates first, then the reaction was started by adding the enzyme mix. In Method B, the enzyme mix was added to the compound plates and the plates were incubated at 20° C. for 1 hour. The reactions were then started by adding the substrate mix.
# After initiating the reaction with either method describe above, the reactions were allowed to proceed for 90 minutes at 20° C. The reactions were then terminated by the addition of 20 μl 100 mM EDTA to each well. 40 μl/well of HTRF detection mix were added to the assay plates. The final concentrations of the detection reagents were: 100 mM HEPES (pH7.5), 0.1 mg/mL BSA, 15 nM streptavidin-labeled allophycocyanin (PerkinElmer), and 1 nM europium-labeled anti-phosphotyrosine antibody (PerkinElmer). Assay plates were left unsealed and were counted in a Wallac Multilabel Counter 1420 (PerkinElmer). […]
# The data for dose responses were plotted as % Inhibition calculated with the data reduction formula 100*(1−(U1−C2)/(C1−C2)) versus concentration of compound where U is the unknown value, C1 is the average control value obtained for 4.76% DMSO, and C2 is the average control value obtained for 0.035 M EDTA. […] The results for each compound were recorded as pIC50s, calculated as follows: pIC50=−Log 10(K)
# [2] = system: Colo205 tumor cell lines; test: Methylene blue growth inhibition assay (cellular Method A); type: cell-based; details: Homo sapiens, COLO 205, 72 h, Table 3, Method A methylene blue, 3 days
# Method: (§1) Human breast (BT474) and head and neck (HN5) were cultured in low glucose DMEM (Life Technologies 12320-032) containing 10% fetal bovine serum (FBS). Human colon tumor cells (Colo205) were cultured in DMEM (Invitrogen, 10564) containing 10% FBS. The SV40 transformed human mammary epithelial cell line to HB4a was transfected with either human H-ras cDNA (HB4a r4.2) or the human c-ErbB2 cDNA (HB4a c5.2). The HB4a clones were cultured in RPMI containing 10% FBS, insulin ([…]), hydrocortisone ([…]), supplemented with the selection agent hygromycin B ([…]). All lines were grown in a humidified incubator at 37° C. in 95% air, 5% CO2. Cells were harvested using trypsin/EDTA, counted using a haemocytometer, and plated in 100 microliters of the appropriate media, at the following densities, in a 96-well tissue culture plate (Falcon 3075): BT474 10,000 cells/well, HN5 3,000 cells/well. The next day, compounds were diluted in DMEM containing […] gentamicin, at twice the final required concentration, from 10 mM stock solutions in DMSO. 100 microliters/well of these dilutions were added to the 100 microliters of media currently on the cell plates. Medium containing 0.6% DMSO was added to control wells. Compounds diluted in DMEM were added to all cell lines. The final concentration of DMSO in all wells was 0.3%. Cells were returned to the incubator (37° C., […]) for 3 days. Medium was then removed by aspiration. Cell biomass was estimated by staining cells with 90 microliters per well methylene blue (Sigma M9140, 0.5% in 1:1 ethanol:water), and incubation at rt for at least 30 minutes. Stain was removed, and the plates rinsed by immersion in deionized water and air-dried. To release stain from the cells 100 microliters of solubilization solution was added (1% N-lauroyl sarcosine, Sodium salt, Sigma L5125, in PBS), and plates were shaken gently for about 30 minutes. Optical density at 620 nm was measured on a microplate reader. Percent inhibition of cell growth was calculated relative to vehicle treated control wells. Concentration of compound that inhibits 50% of control cell growth (IC50) was interpolated using nonlinear regression (Levenberg-Marquardt) and the equation, y=Vmax*(1−(x/(K+x)))+Y2, where “K” was equal to the IC50. Method B: Celltiter Glo® Growth Inhibition Assays
# [3] = system: BT474 and HN5 tumor cell lines; test: as above; type: cell-based; details: Homo sapiens, BT-474 and HN5, 72 h; Table 2, Method A methylene blue, 3 days; class over BT474 and HN5;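 further: class counts the more potent of the two cell lines (BT474 or HN5)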
# Method: as §1
IC50 [2],IC50 [3],SMILES,Activity (Method) [1]
,,"O=C(Cc1cc(F)ccc1F)Nc1cccc(-c2nn3ccccc3c2-c2ccnc(Nc3ccccc3)n2)c1 [Example 6, 2-(2,5-Difluorophenyl)-N-(3-{3-[2-(phenylamino)-4-pyrimidinyl]pyrazolo[1,5-a]pyridin-2-yl}phenyl)acetamide]",++ (A) (at least one pIC50 measurement greater than 6 against either ErbB2 or EGFR but no measurement greater than pIC50 of 7)
,,"O=C(Cc1cccs1)Nc1cccc(-c2nn3ccccc3c2-c2ccnc(Nc3ccccc3)n2)c1 [Example 4, N-(3-{3-[2-(Phenylamino)-4-pyrimidinyl]pyrazolo[1,5-a]pyridin-2-yl}phenyl)-2-(2-thienyl)acetamide]",++ (A) (at least one pIC50 measurement greater than 6 against either ErbB2 or EGFR but no measurement greater than pIC50 of 7)
,,"O=C(Cc1cccc(Cl)c1)Nc1cccc(-c2nn3ccccc3c2-c2ccnc(Nc3ccccc3)n2)c1 [Example 5, 2-(3-Chlorophenyl)-N-(3-{3-[2-(phenylamino)-4-pyrimidinyl]pyrazolo-[1,5-a]pyridin-2-yl}phenyl)acetamide]",+ (A) (no pIC50 measurement greater than 6 against either ErbB2 or EGFR)
> 1 µM,> 1 µM,"O=C(Cc1ccccc1)Nc1cccc(-c2nn3ccccc3c2-c2ccnc(Nc3ccccc3)n2)c1 [Example 3, 2-Phenyl-N-(3-{3-[2-(phenylamino)-4-pyrimidinyl]pyrazolo[1,5-a]pyridin-2-yl}phenyl)acetamide]",++ (A) (at least one pIC50 measurement greater than 6 against either ErbB2 or EGFR but no measurement greater than pIC50 of 7)
